Positions of bridges follow the written chain, without caps; N, C: chain ends. Residues, ends and D or L forms follow the SMILES beside them.
Tests used:
[1] = biological target: T1, Plasmin (Homo sapiens, UniProt P00747); assay: Stability to enzymatic degradation by plasmin (Examples 7, 16); type: in vitro ADME; conditions: plasmin, 37° C.; for half-life at 125 μM: plasmin in Tris/HCl-NaCl buffer, read-out: HalfLife in plasmin
T1 construct: with 500 ng Endopeptidase (NEP) or 10 μg Plasmin
Method: The incubation buffer contained 100 mM Tris/HCl and 150 mM NaCl and the pH was adjusted to 7.2-7.4. In each assay, 100 μl of peptide [500 μM] was incubated with 300 μl buffer (with 500 ng Endopeptidase (NEP) or 10 μg Plasmin) at 37° C. 50 μl aliquots were taken at times 5 min, 30 min, 60 min, 90 min, 180 min and 24 h. The reaction was quenched by heating to 100° C. for 4 min and the remaining peptide concentrations measured by RP-HPLC. Note that the levels of Plasmin required to degrade these peptides was several thousands time the levels present in human plasma.
The stability of TDT and was investigated using the same enzymatic degradation assays (NEP, plasmin, pepsin) disclosed in Example 7. […] It is also evident that the increased NEP stability cannot be explained by the length of the tail region alone as the NEP cleavage site residues at the N-terminal end of the loop region.

[2] = tested on: conscious rabbits; assay: Blood pressure and heart rate in conscious rabbits, intravenous infusion dose-response (Example 8); parameters: Systolic BP, mean difference / Diastolic BP, mean difference / Mean BP, mean difference / HR, mean difference: dose or concentration left out as unconfirmed; conditions: for Recovery (MAP) / Recovery Delta SED (MAP): after 1 hour recovery period; for Recovery (MAP) / Recovery Delta SED (MAP) / MAP at final dose / Treatment Effect, change of mean blood pressure during the infusion: Table 10A; for MAP at final dose / Treatment Effect, change of mean blood pressure during the infusion: highest dose; for Treatment Effect, change of mean blood pressure during the infusion: groups 1, 2A and 3; for Diastolic BP, mean difference from control / HR, mean difference from control / Mean BP, mean difference from control / Systolic BP, mean difference from control: 45 min
[3] = biological target: T2, Natriuretic Peptide Receptor-A (NPR-A) signaling in MDCK cells (Canis lupus familiaris, UniProt A0A8I3MHU3); type: cell-based, canine; conditions: stimulation of cGMP accumulation in MDCK cells
T2 sequence (A0A8I3MHU3 32-1060): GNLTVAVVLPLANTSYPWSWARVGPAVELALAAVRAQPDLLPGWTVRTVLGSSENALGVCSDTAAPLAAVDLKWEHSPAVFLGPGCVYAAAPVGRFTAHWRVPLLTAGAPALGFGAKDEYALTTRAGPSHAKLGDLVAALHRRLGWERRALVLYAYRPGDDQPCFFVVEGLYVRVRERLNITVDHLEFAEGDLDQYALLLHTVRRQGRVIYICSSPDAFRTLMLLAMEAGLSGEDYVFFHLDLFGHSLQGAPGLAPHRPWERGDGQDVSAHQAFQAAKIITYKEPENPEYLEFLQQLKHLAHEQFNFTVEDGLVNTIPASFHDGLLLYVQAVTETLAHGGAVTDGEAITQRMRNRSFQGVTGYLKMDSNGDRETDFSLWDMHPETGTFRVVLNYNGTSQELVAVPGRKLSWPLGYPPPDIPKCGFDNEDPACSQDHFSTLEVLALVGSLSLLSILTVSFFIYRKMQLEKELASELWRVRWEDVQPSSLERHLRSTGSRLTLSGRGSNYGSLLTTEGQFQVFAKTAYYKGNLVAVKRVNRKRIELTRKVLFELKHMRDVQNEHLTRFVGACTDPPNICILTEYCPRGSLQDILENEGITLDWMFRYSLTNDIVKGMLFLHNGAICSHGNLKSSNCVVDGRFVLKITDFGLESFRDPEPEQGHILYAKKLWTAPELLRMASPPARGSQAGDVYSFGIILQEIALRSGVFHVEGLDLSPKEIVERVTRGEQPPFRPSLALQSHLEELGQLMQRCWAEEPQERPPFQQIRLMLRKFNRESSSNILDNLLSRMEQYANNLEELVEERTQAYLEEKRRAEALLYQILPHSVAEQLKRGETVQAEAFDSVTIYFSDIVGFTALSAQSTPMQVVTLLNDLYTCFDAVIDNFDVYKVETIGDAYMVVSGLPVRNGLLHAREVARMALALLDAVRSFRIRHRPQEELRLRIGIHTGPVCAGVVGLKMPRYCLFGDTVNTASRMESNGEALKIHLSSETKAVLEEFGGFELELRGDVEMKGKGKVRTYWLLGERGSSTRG

[4] = tested on: endothelium-intact aortic rings (NPR-C mediated); assay: Aortic ring relaxation, endothelium-intact rings pre-contracted with 40 mM KCl (Example 3); parameters: species or system rat; conditions: endothelium-intact rat aortas pre-contracted with 40 mM KCl; peptide 0.1 μM
Method: (§1) Male Sprague Dawley rats were killed and the descending thoracic aorta rapidly removed and flushed with physiological solution. After being cleared of adhering fat and connective tissue, 5 mm rings were mounted under 10 g resting tension, between two stainless steel hooks, in organ baths (37° C.) containing carbogenated (95% O2 and 5% CO2) physiological salt solution of the following composition (mM): NaCl, 118.4; NaHCO3, 25; glucose, 11; KCl, 4.7; MgSO4, 1.2; KH2PO4, 1.2 and CaCl2, 2.5. The lower hook was attached to a tissue holder and the upper hook to a force displacement transducer (Grass FTO3). Where indicated endothelial cells were removed by gentle rubbing of the intimal surface with a wire. To confirm the presence or absence of endothelial cells, tissues were precontracted with a sub-maximal concentration of phenylephrine (0.3 μM) and the response to acetylcholine (ACh, 10 μM) observed. Ach-induced relaxation greater than 80% of maximum indicated the presence of endothelium; whereas Ach-induced relaxation less than 10% indicated the absence of endothelium. Ring preparations under resting tension were conditioned by two contraction/relaxation cycles with 40 mM KCl, contracted by a third application of 40 mM KCl and then relaxed with different doses of the venom peptides. Responses were expressed as a percentage relaxation of the precontraction by KCl.

[5] = tested on: endothelium-denuded aortic rings (GC-A mediated); assay: Aortic ring relaxation, endothelium-denuded rings pre-contracted with 40 mM KCl (Example 3); parameters: species or system rat; conditions: endothelium-denuded rat aortas pre-contracted with 40 mM KCl; peptide 0.1 μM
Method: as §1

[6] = Table 9B, average of doses 1, 2, 4
[7] = average of the 3 doses 1.0, 2.0, 4.0 μg/kg/min

T1 sequence (P00747 97-580 partner limits assumed, species assumed): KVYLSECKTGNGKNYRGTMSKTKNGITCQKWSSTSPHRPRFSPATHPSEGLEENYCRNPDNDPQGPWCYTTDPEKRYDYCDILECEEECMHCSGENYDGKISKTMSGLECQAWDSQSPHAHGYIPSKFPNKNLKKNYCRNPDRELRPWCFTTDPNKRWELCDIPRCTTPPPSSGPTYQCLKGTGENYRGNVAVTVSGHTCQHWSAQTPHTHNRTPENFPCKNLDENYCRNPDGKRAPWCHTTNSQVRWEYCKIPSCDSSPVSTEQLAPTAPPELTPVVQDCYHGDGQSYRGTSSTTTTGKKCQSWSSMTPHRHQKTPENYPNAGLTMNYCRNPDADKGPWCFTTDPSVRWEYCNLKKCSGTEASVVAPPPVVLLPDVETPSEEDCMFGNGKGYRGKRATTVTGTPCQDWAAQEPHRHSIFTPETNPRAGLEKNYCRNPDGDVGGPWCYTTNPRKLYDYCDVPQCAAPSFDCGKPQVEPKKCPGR
T1 sequence (P00747 581-810 limits assumed, species assumed): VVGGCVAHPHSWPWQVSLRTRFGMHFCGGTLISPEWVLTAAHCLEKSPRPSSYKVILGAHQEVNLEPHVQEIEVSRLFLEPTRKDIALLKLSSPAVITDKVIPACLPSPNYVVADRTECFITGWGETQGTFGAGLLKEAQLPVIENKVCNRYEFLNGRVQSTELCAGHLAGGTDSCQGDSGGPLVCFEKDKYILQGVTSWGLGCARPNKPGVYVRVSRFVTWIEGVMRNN

SMILES: CC[C@H](C)[C@@H]1NC(=O)[C@H](CCCNC(=N)N)NC(=O)[C@H](CC(=O)O)NC(=O)[C@H](CCSC)NC(=O)[C@H](CCCNC(=N)N)NC(=O)CNC(=O)CNC(=O)[C@H](Cc2ccccc2)NC(=O)[C@@H](NC(=O)[C@H](CO)NC(=O)[C@H](CO)NC(=O)[C@H](CCCNC(=N)N)NC(=O)[C@H](CCCNC(=N)N)NC(=O)[C@H](CC(C)C)NC(=O)[C@@H](N)CO)CSSC[C@@H](C(=O)N[C@@H](CC(N)=O)C(=O)N[C@@H](CO)C(=O)N[C@@H](Cc2ccccc2)C(=O)N[C@@H](CCCNC(=N)N)C(=O)N[C@@H](Cc2ccc(O)cc2)C(=O)O)NC(=O)CNC(=O)[C@H](CC(C)C)NC(=O)CNC(=O)[C@H](CO)NC(=O)[C@H](CCC(N)=O)NC(=O)[C@H](C)NC(=O)CNC1=O [hANP, reference compound]
- half-life at 125 μM [1]: 2.03 min
- K (one phase exponential decay, best fit values) [1]: 0.3413
- PLATEAU (one phase exponential decay, best fit values) [1]: 0.04207
- SPAN (one phase exponential decay, best fit values) [1]: 0.9579
- Diastolic BP, mean difference ([2]; Table 9B, Dose 1): −9.7 mmHg
- HR, mean difference ([2]; Table 9B, Dose 1): 17 bpm
- Mean BP, mean difference ([2]; Table 9B, Dose 1): −13.1 mmHg
- Systolic BP, mean difference ([2]; Table 9B, Dose 1): −10.6 mmHg
- Diastolic BP, mean difference ([2]; Table 9B, Dose 2): −12.3 mmHg
- HR, mean difference ([2]; Table 9B, Dose 2): 19 bpm
- Mean BP, mean difference ([2]; Table 9B, Dose 2): −15.7 mmHg
- Systolic BP, mean difference ([2]; Table 9B, Dose 2): −13.0 mmHg
- Diastolic BP, mean difference ([2]; Table 9B, Dose 4): −14.4 mmHg
- HR, mean difference ([2]; Table 9B, Dose 4): 9 bpm
- Mean BP, mean difference ([2]; Table 9B, Dose 4): −18.5 mmHg
- Systolic BP, mean difference ([2]; Table 9B, Dose 4): −14.5 mmHg
- Diastolic BP, Average Response SED [2, 6]: −12.1 ± 0.8 mmHg
- HR, Average Response SED [2, 6]: 15 ± 3 bpm
- Systolic BP, Average Response SED [2, 6]: −12.7 ± 0.9 mmHg
- Recovery (MAP) [2]: 59.2 mm Hg
- Recovery Delta SED (MAP) ([2]; listed as WT-hANP): 5.0±1.2 mm Hg
- Diastolic BP, Average Response SED [2, 7]: −12.1 ± 0.8 mmHg
- HR, Average Response SED [2, 7]: 15.1 ± 3.2 bpm
- Systolic BP, Average Response SED [2, 7]: −12.7 ± 0.9 mmHg
- MAP at final dose [2]: 54.2 mm Hg
- Treatment Effect, change of mean blood pressure during the infusion [2]: −18.5 mm Hg
- Diastolic BP, mean difference from control ([2]; i.v. infusion 1.0 μg/kg/min): −9.7 mmHg
- HR, mean difference from control ([2]; i.v. infusion 1.0 μg/kg/min): 17.1 bpm
- Mean BP, mean difference from control ([2]; i.v. infusion 1.0 μg/kg/min): −13.1 mmHg
- Systolic BP, mean difference from control ([2]; i.v. infusion 1.0 μg/kg/min): −10.6 mmHg
- Diastolic BP, mean difference from control ([2]; i.v. infusion 2.0 μg/kg/min): −12.3 mmHg
- HR, mean difference from control ([2]; i.v. infusion 2.0 μg/kg/min): 19.0 bpm
- Mean BP, mean difference from control ([2]; i.v. infusion 2.0 μg/kg/min): −15.7 mmHg
- Systolic BP, mean difference from control ([2]; i.v. infusion 2.0 μg/kg/min): −13.0 mmHg
- Diastolic BP, mean difference from control ([2]; i.v. infusion 4.0 μg/kg/min): −14.4 mmHg
- HR, mean difference from control ([2]; i.v. infusion 4.0 μg/kg/min): 9.0 bpm
- Mean BP, mean difference from control ([2]; i.v. infusion 4.0 μg/kg/min): −18.5 mmHg
- Systolic BP, mean difference from control ([2]; i.v. infusion 4.0 μg/kg/min): −14.5 mmHg
- −Log10 EC50 (pEC50) ± Standard Error [3]: 8.792 ± 0.2718
- EC50 ([3]; read-out: EC50 (M) ± Standard Error): 1.64e-08 M
- percentage relaxation of the precontraction by KCl [4]: ~100%
- percentage relaxation of the precontraction by KCl [5]: ~100%

SMILES: CC[C@H](C)[C@@H]1NC(=O)[C@H](CCCCN)NC(=O)[C@H](Cc2c[nH]cn2)NC(=O)CNC(=O)[C@H](Cc2ccccc2)NC(=O)[C@@H](NC(=O)[C@@H]2CCCN2C(=O)[C@H](CC(=O)O)NC(=O)[C@H](Cc2ccc(O)cc2)NC(=O)[C@H](CCCCN)NC(=O)[C@@H](NC(=O)[C@@H](N)CCC(=O)O)C(C)C)CSSC[C@@H](C(=O)N2CCC[C@H]2C(=O)N[C@@H](CO)C(=O)N[C@@H](CC(C)C)C(=O)N[C@@H](CCCNC(=N)N)C(=O)N[C@@H](CC(=O)O)C(=O)N2CCC[C@H]2C(=O)N[C@@H](CCCNC(=N)N)C(=O)N2CCC[C@H]2C(=O)N[C@@H](CC(N)=O)C(=O)N[C@@H](C)C(=O)N2CCC[C@H]2C(=O)N[C@@H](CO)C(=O)N[C@H](C(=O)N[C@@H](CO)C(=O)N[C@@H](C)C(=O)O)[C@@H](C)O)NC(=O)CNC(=O)[C@H](CC(C)C)NC(=O)[C@H](CC(N)=O)NC(=O)[C@H](CO)NC(=O)[C@H](C(C)C)NC(=O)[C@H](Cc2c[nH]cn2)NC(=O)[C@H](CC(N)=O)NC(=O)[C@H]([C@@H](C)CC)NC(=O)[C@H](CCCNC(=N)N)NC(=O)[C@H](CC(=O)O)NC1=O [DNP, reference compound] (H-EVKYDPCFGHKIDRINHVSNLGCPSLRDPRPNAPSTSA-OH; disulfide 7-23; N-terminus and C-terminus assumed)
- half-life at 125 μM [1]: 29.1 min
- K (one phase exponential decay, best fit values) [1]: 0.02381
- PLATEAU (one phase exponential decay, best fit values) [1]: 0.1675
- SPAN (one phase exponential decay, best fit values) [1]: 0.7306
- Recovery (MAP) [2]: 61.4 mm Hg
- Recovery Delta SED (MAP) [2]: 2.5 ± 1.1 mm Hg
- Diastolic BP, Average Response SED [2, 7]: −9.0 ± 0.9 mmHg
- HR, Average Response SED [2, 7]: 17.3 ± 6.4 bpm
- Mean BP (MAP), Average Response SED [2, 7]: −14.2±0.8 mmHg
- Systolic BP, Average Response SED [2, 7]: −13.3 ± 0.8 mmHg
- MAP at final dose [2]: 58.9 mm Hg
- Treatment Effect, change of mean blood pressure during the infusion [2]: −17.2 mm Hg
- Diastolic BP, mean difference from control ([2]; i.v. infusion 1.0 μg/kg/min): −8.5 mmHg
- HR, mean difference from control ([2]; i.v. infusion 1.0 μg/kg/min): 17.5 bpm
- Mean BP, mean difference from control ([2]; i.v. infusion 1.0 μg/kg/min): −13.0 mmHg
- Systolic BP, mean difference from control ([2]; i.v. infusion 1.0 μg/kg/min): −11.7 mmHg
- Diastolic BP, mean difference from control ([2]; i.v. infusion 2.0 μg/kg/min): −6.9 mmHg
- HR, mean difference from control ([2]; i.v. infusion 2.0 μg/kg/min): 25.9 bpm
- Mean BP, mean difference from control ([2]; i.v. infusion 2.0 μg/kg/min): −12.6 mmHg
- Systolic BP, mean difference from control ([2]; i.v. infusion 2.0 μg/kg/min): −11.9 mmHg
- Diastolic BP, mean difference from control ([2]; i.v. infusion 4.0 μg/kg/min): −11.7 mmHg
- HR, mean difference from control ([2]; i.v. infusion 4.0 μg/kg/min): 8.5 bpm
- Mean BP, mean difference from control ([2]; i.v. infusion 4.0 μg/kg/min): −17.2 mmHg
- Systolic BP, mean difference from control ([2]; i.v. infusion 4.0 μg/kg/min): −16.4 mmHg
- −Log10 EC50 (pEC50) ± Standard Error [3]: 8.080 ± 1.411
- percentage relaxation of the precontraction by KCl [4]: ~100%
- percentage relaxation of the precontraction by KCl [5]: ~100%

— patent US8058242B2, “Chimeric proteins with natriuretic activity” (The University of Queensland, priority 2004, dated 2011)
